# Residues, ends and D or L forms follow the SMILES beside them.
# Experiments:
# [1] = tested on: CT26 colorectal tumor-bearing mouse model; assay: Anti-tumor activity in CT26 tumor-bearing Balb/C mice; format: in vivo
# Description: (§1) Animal Study. The animal protocol was approved by the University of Missouri-Kansas City, Institutional Animal Care and Use Committee (IACUC). Five-week old male and female Balb/c mice were purchased from Charles Rivers Laboratories (Wilmington, Mass.) and housed in a temperature and humidity controlled room on a 12-hour light-dark cycle. Approximately 5×10^5 CT26 cells were subcutaneously injected into the right flank. The mice were randomly divided into five different groups (10 mice/group, 50% female, 50% male). The mice were intraperitoneally injected with 2 mg/kg peptide daily when the tumor size reached 50-100 mm^3. The anti-mouse PD-L1 antibody (10F.9G2, BioXcell) was administrated as a positive control at a dose of 10 mg/kg every two days. The tumor size was assessed with a caliper and calculated with the formula 0.5×length×width^2. ELISA kits of PD-L1 (Cat #DY1019-05), IFNγ (Cat #DY485-05), and IL-6 (Cat #DY406-05) were used to measure the expressions of PD-L1, IFNγ, and IL-6, respectively, in tumors as per the company's instructions (R & D Systems, Minneapolis, MN).
# The anti-mouse PD-L1 antibody (BioXcell, 10F.9G2) was administered intraperitoneally every other day at 10 mg/kg. […] In general, CLP002 (SEQ ID NO:2) exerted a better tumor inhibitory effect than CLP003 (SEQ ID NO:3), which was similar to the antibody. […] In FIG. 6e the weight of the tumors harvested at day 14 is shown. The results were represented as the mean±SD (n=10). It is noteworthy that the peptides were screened against the human PD-L1 protein, which, in fact, would compromise the anti-tumor activity of the peptides in a mouse model.
# [2] = biological target: T1, recombinant human PD-L1 ECD protein (Homo sapiens, UniProt Q9NZQ7); assay: SPR binding kinetics and affinity to immobilized human PD-L1; details: read-out: Ka
# T1 construct: against the recombinant human PD-L1 ECD protein were evaluated using SPR; purchased G&P Biosciences FCL0784B
# T1 sequence (Q9NZQ7 19-238 limits assumed): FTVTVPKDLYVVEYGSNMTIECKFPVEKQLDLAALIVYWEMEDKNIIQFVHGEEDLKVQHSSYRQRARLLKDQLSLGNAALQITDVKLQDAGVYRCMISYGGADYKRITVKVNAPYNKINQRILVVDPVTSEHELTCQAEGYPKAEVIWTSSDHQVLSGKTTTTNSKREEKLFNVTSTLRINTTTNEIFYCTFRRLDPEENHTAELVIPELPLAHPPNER
# Method: In such aspects, the equilibrium dissociate constant KD value against recombinant human PD-L1 can be determined according to an KD to PD-L1 SPR Assay. The KD to PD-L1 SPR Assay can include the use of Surface Plasmon Resonance (SPR), such as the B14500, Biosensing Instrument, and can include the following procedures. The PD-L1 protein can be diluted to 10 μg/mL with sodium acetate buffer (pH 5.0, GE Healthcare, PA) and covalently coated onto a CM5 sensor chip (CM Dextran Sensor Chip, Biosensing Instrument) using the standard Amine Coupling Kit (GE Healthcare, PA). Approximately 6500 RU of PD-L1 protein are immobilized onto the chip. A second channel is used as a reference. HBS-EP+ buffer (GE Healthcare) can be employed at a flow rate of 60 μL/min. A series of concentrations of each peptide (15, 30, 60, 125, 250, 500, 1000, 5000 and 10,000 nM) is prepared in HBS-EP+ running buffer to obtain the equilibrium dissociation constant (KD) values of the peptides. The CM5 sensor chip can be regenerated with 10 mM NaOH for 20 s. The results can be analyzed using the software of Bi data analysis software.
# Evaluation of Binding Kinetics and Affinity By Surface Plasmon Resonance (SPR). Binding affinities of the PD-L1 specific peptides for human PD-L1 protein were determined by SPR (B14500, Biosensing Instrument). PD-L1 protein was diluted to 10 μg/mL with sodium acetate buffer (pH 5.0, GE Healthcare, PA) and covalently coated onto a CM5 sensor chip (CM Dextran Sensor Chip, Biosensing Instrument) using the standard Amine Coupling Kit (GE Healthcare, PA). Approximately 6500 RU of PD-L1 protein were immobilized onto the chip. A second channel was used as a reference. HBS-EP+ buffer (GE Healthcare) was employed at a flow rate of 60 μL/min. A series of concentrations of each peptide (15, 30, 60, 125, 250, 500, 1000, 5000 and 10,000 nM) were prepared in HBS-EP+ running buffer to obtain the equilibrium dissociation constant (KD) values of the peptides. The CM5 sensor chip was regenerated with 10 mM NaOH for 20 seconds. The results were analyzed using the software of Bi data analysis software. Binding affinities of the anti-PD-L1 peptides to BSA was also assessed following the procedure for human PD-L1.
# DU145 cancer cell = format: cell-based, human
# Method: (§2) Ninety-six-well plates were coated with 100 ng of PD-L1 protein (G&P Biosciences, human PD-L1 ECD, cat #FCL0784B. mouse PD-L1, cat #FCL3502B) and later blocked with 2% BSA for 2 hours at room temperature. Various concentrations of peptides were loaded into the wells and incubated for 1 hour at room temperature. […] Streptavidin-HRP (R & D systems) and chromogenic substrate were added into the wells. OD450 was then recorded and referenced to OD540.
# The blocking efficiency of the anti-PD-L1 peptides at 10 μM (FIG. 2c). […] The IC50 of each peptide was also determined using recombinant human PD-L1 protein and DU-145 cancer cells.
# [3] = tested on: CT26 tumor-bearing Balb/C mice; assay: Survival of CT26 tumor-bearing Balb/C mice; format: in vivo, mouse
# Description: as §1
# In this Example, mice were intraperitoneally injected with the CLP002 (SEQ ID NO:2) and CLP003 (SEQ ID NO:3) peptides daily or the anti-mouse PD-L1 antibody every other day from day 4 to day 17 (see survival curves in FIG. 7a). Specifically, CT26 tumor-bearing Balb/C mice (n=10, 5 male and 5 female) were intraperitoneally injected with the anti-PD-L1 peptides (2 mg/Kg) daily and the anti-mouse PD-L1 antibody (10 mg/Kg) every other day from day 4 to day 17. GraphPad Prism 7 software (San Diego, Calif.) was used for statistical analysis. Comparison of two survival curves were conducted using the Gehan-Breslow-Wilcoxon test. […] By contrast, only 20% of the mice in the CLP002 (SEQ ID NO:2) group were dead by day 17.
# hPD-L1 = hPD-L1 (Homo sapiens, UniProt Q9NZQ7); assay: Blockade of the PD-1/PD-L1 interaction, plate coated with human PD-L1 protein; format: binding; design: PD-L1 protein (G&P Biosciences, human PD-L1 ECD, cat #FCL0784B); purchased G&P Biosciences FCL0784B (PD-L1)
# Chain of hPD-L1 (Q9NZQ7 19-238 limits assumed): as above
# Method: as §2
structure (smiles),measurement,setting,value
CC(C)C[C@H](NC(=O)[C@H](CC(N)=O)NC(=O)[C@H](Cc1c[nH]c2ccccc12)NC(=O)[C@@H](NC(=O)[C@H](Cc1ccc(O)cc1)NC(=O)[C@H](Cc1ccc(O)cc1)NC(=O)[C@H](CO)NC(=O)[C@H](CCCNC(=N)N)NC(=O)[C@H](Cc1c[nH]cn1)NC(=O)[C@@H](N)Cc1c[nH]c2ccccc12)[C@@H](C)O)C(=O)N[C@@H](CC(N)=O)C(=O)N[C@H](C(=O)O)[C@@H](C)O [CLP002] (H-WHRSYYTWNLNT-OH; N-terminus and C-terminus assumed),Tumor growth,"[1]; peptides 2 mg/kg i.p. daily, antibody 10 mg/kg i.p. every other day",effectively suppressed tumor growth
same,Tumor weights at day 14,[1]; versus saline group,significantly smaller than the saline group
same,kon,[2],4520 M⁻¹ s⁻¹
same,IC50,DU145 cancer cell; 2 h,1430 nM
same,Blocking Efficiency (%),DU145 cancer cell; DU-145 cancer cells,80%
same,Tumor growth in the survival study,"[3]; Example 7, individual growth curves",inhibited tumor growth
same,Mice showing a response to treatment (in words),[3]; n=10,Eight mice showed a response
same,Mice dead by day 17,"[3]; n=10, saline group 90%",20%
same,Survival of tumor-bearing mice,[3]; treatment from day 4 to day 17,improved the survival
same,Blocking Efficiency (%),hPD-L1; human PD-L1 protein,85%
same,Blocking of the human PD-1/PD-L1 interaction (in words),"hPD-L1; peptides at 10 μM, FIG. 2c",highest blocking efficiency
same,IC50,hPD-L1; plate coated with human PD-L1 protein,2170 nM

# Reference: patent US12258424B2, “Polypeptides and compositions comprising the same” (priority 2020, dated 2025)
